The supplement of paper PMC10307832

Tests used:
Assay in all cases: relative viability (nuclei count vs DMSO), 5 days (fraction); higher = more cells survive
PC-3 [JPC-3] = system: PC-3 [JPC-3]
In short: (§1)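 Relative viability divides the nuclei count in treated wells by that in vehicle wells. Lung cancer cell lines were seeded in 1536-well plates, dosed by pin tool the next day, and fixed and stained after 5 days in one step with final 0.05% Triton X-100, 1% formaldehyde and 1 ug/ml Hoechst. Dosing was a single drug or a fixed anchor-drug dose plus five library-drug doses (not always all listed) in √10 steps, and values are medians of duplicate plates imaged at 4×.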

SW 1573 = system: SW 1573
In short: as §1

LK-2 = system: LK-2
In short: as §1

NCI-H3122 = system: NCI-H3122
In short: as §1

NCI-H2170 = system: NCI-H2170
In short: as §1

EMC-BAC-2 = system: EMC-BAC-2
In short: as §1

NCI-H322M = system: NCI-H322M
In short: as §1

SW 900 = system: SW 900
In short: as §1

NCI-H596 = system: NCI-H596
In short: as §1

NCI-H1993 = system: NCI-H1993
In short: as §1

A-427 = system: A-427
In short: as §1

NCI-H2009 = system: NCI-H2009
In short: as §1

LXF-289 = system: LXF-289
In short: as §1

HARA = system: HARA
In short: as §1

NCI-H1792 = system: NCI-H1792
In short: as §1

HOP-62 = system: HOP-62
In short: as §1

NCI-H1944 = system: NCI-H1944
In short: as §1

NCI-H522 = system: NCI-H522
In short: as §1

NCI-H2228 = system: NCI-H2228
In short: as §1

SK-MES-1 = system: SK-MES-1
In short: as §1

## CC(=O)O[C@@]12CO[C@@H]1C[C@H](O)[C@@]1(C)C(=O)[C@H](O)C3=C(C)[C@@H](OC(=O)[C@H](O)[C@@H](NC(=O)OC(C)(C)C)c4ccccc4)C[C@@](O)([C@@H](OC(=O)c4ccccc4)[C@H]21)C3(C)C [Docetaxel] + Nc1nc2[nH]cc(CCc3ccc(C(=O)N[C@@H](CCC(=O)O)C(=O)O)cc3)c2c(=O)[nH]1 [Pemetrexed] (partner 0.2 µM)
PC-3 [JPC-3]; first compound 0.0002 µM
  relative viability: 1.01
PC-3 [JPC-3]; first compound 0.000632 µM
  relative viability: 0.713
PC-3 [JPC-3]; first compound 0.002 µM
  relative viability: 0.513
PC-3 [JPC-3]; first compound 0.006325 µM
  relative viability: 0.265
PC-3 [JPC-3]; first compound 0.02 µM
  relative viability: 0.195
SW 1573; first compound 0.0002 µM
  relative viability: 0.557
SW 1573; first compound 0.000632 µM
  relative viability: 0.478
SW 1573; first compound 0.002 µM
  relative viability: 0.236
SW 1573; first compound 0.006325 µM
  relative viability: 0.146
SW 1573; first compound 0.02 µM
  relative viability: 0.138
LK-2; first compound 0.0002 µM
  relative viability: 0.172
LK-2; first compound 0.000632 µM
  relative viability: 0.217
LK-2; first compound 0.002 µM
  relative viability: 0.163
LK-2; first compound 0.006325 µM
  relative viability: 0.119
LK-2; first compound 0.02 µM
  relative viability: 0.131
NCI-H3122; first compound 0.0002 µM
  relative viability: 0.185
NCI-H3122; first compound 0.000632 µM
  relative viability: 0.196
NCI-H3122; first compound 0.002 µM
  relative viability: 0.193
NCI-H3122; first compound 0.006325 µM
  relative viability: 0.14
NCI-H3122; first compound 0.02 µM
  relative viability: 0.111
NCI-H2170; first compound 0.0002 µM
  relative viability: 0.26
NCI-H2170; first compound 0.000632 µM
  relative viability: 0.257
NCI-H2170; first compound 0.002 µM
  relative viability: 0.251
NCI-H2170; first compound 0.006325 µM
  relative viability: 0.177
NCI-H2170; first compound 0.02 µM
  relative viability: 0.174
EMC-BAC-2; first compound 0.0002 µM
  relative viability: 0.461
EMC-BAC-2; first compound 0.000632 µM
  relative viability: 0.462
EMC-BAC-2; first compound 0.002 µM
  relative viability: 0.464
EMC-BAC-2; first compound 0.006325 µM
  relative viability: 0.361
EMC-BAC-2; first compound 0.02 µM
  relative viability: 0.358
NCI-H322M; first compound 0.0002 µM
  relative viability: 0.552
NCI-H322M; first compound 0.000632 µM
  relative viability: 0.602
NCI-H322M; first compound 0.002 µM
  relative viability: 0.689
NCI-H322M; first compound 0.006325 µM
  relative viability: 0.642
NCI-H322M; first compound 0.02 µM
  relative viability: 0.486
SW 900; first compound 0.0002 µM
  relative viability: 0.462
SW 900; first compound 0.000632 µM
  relative viability: 0.332
SW 900; first compound 0.002 µM
  relative viability: 0.303
SW 900; first compound 0.006325 µM
  relative viability: 0.281
SW 900; first compound 0.02 µM
  relative viability: 0.24
NCI-H596; first compound 0.0002 µM
  relative viability: 0.486
NCI-H596; first compound 0.000632 µM
  relative viability: 0.568
NCI-H596; first compound 0.002 µM
  relative viability: 0.675
NCI-H596; first compound 0.006325 µM
  relative viability: 0.441
NCI-H596; first compound 0.02 µM
  relative viability: 0.369
NCI-H1993; first compound 0.0002 µM
  relative viability: 0.641
NCI-H1993; first compound 0.000632 µM
  relative viability: 0.762
NCI-H1993; first compound 0.002 µM
  relative viability: 0.64
NCI-H1993; first compound 0.006325 µM
  relative viability: 0.444
NCI-H1993; first compound 0.02 µM
  relative viability: 0.391
A-427; first compound 0.0002 µM
  relative viability: 0.886
A-427; first compound 0.000632 µM
  relative viability: 0.946
A-427; first compound 0.002 µM
  relative viability: 0.822
A-427; first compound 0.006325 µM
  relative viability: 0.323
NCI-H2009; first compound 0.0002 µM
  relative viability: 0.946
NCI-H2009; first compound 0.000632 µM
  relative viability: 1.03
NCI-H2009; first compound 0.002 µM
  relative viability: 0.956
NCI-H2009; first compound 0.006325 µM
  relative viability: 0.733
NCI-H2009; first compound 0.02 µM
  relative viability: 0.27
LXF-289; first compound 0.0002 µM
  relative viability: 0.875
LXF-289; first compound 0.000632 µM
  relative viability: 0.8
LXF-289; first compound 0.002 µM
  relative viability: 0.363
LXF-289; first compound 0.006325 µM
  relative viability: 0.116
LXF-289; first compound 0.02 µM
  relative viability: 0.0871
HARA; first compound 0.0002 µM
  relative viability: 0.196
HARA; first compound 0.000632 µM
  relative viability: 0.247
HARA; first compound 0.002 µM
  relative viability: 0.247
HARA; first compound 0.006325 µM
  relative viability: 0.188
HARA; first compound 0.02 µM
  relative viability: 0.142
NCI-H1792; first compound 0.0002 µM
  relative viability: 0.764
NCI-H1792; first compound 0.000632 µM
  relative viability: 0.533
NCI-H1792; first compound 0.002 µM
  relative viability: 0.223
NCI-H1792; first compound 0.006325 µM
  relative viability: 0.105
NCI-H1792; first compound 0.02 µM
  relative viability: 0.0705
HOP-62; first compound 0.0002 µM
  relative viability: 0.324
HOP-62; first compound 0.000632 µM
  relative viability: 0.362
HOP-62; first compound 0.002 µM
  relative viability: 0.304
NCI-H1944; first compound 0.0002 µM
  relative viability: 0.619
NCI-H1944; first compound 0.000632 µM
  relative viability: 0.568
NCI-H1944; first compound 0.002 µM
  relative viability: 0.521
NCI-H1944; first compound 0.006325 µM
  relative viability: 0.248
NCI-H1944; first compound 0.02 µM
  relative viability: 0.118
NCI-H522; first compound 0.0002 µM
  relative viability: 1.06
NCI-H522; first compound 0.000632 µM
  relative viability: 0.814
NCI-H522; first compound 0.002 µM
  relative viability: 0.737
NCI-H522; first compound 0.006325 µM
  relative viability: 0.636
NCI-H522; first compound 0.02 µM
  relative viability: 0.355
NCI-H2228; first compound 0.0002 µM
  relative viability: 0.319
NCI-H2228; first compound 0.000632 µM
  relative viability: 0.228
NCI-H2228; first compound 0.002 µM
  relative viability: 0.154
NCI-H2228; first compound 0.006325 µM
  relative viability: 0.146
NCI-H2228; first compound 0.02 µM
  relative viability: 0.11
SK-MES-1; first compound 0.0002 µM
  relative viability: 0.971
SK-MES-1; first compound 0.000632 µM
  relative viability: 0.907
SK-MES-1; first compound 0.002 µM
  relative viability: 0.499
SK-MES-1; first compound 0.006325 µM
  relative viability: 0.341
SK-MES-1; first compound 0.02 µM
  relative viability: 0.197
